Publication PMC11678116 (Molecules, 2024)
Where “and” joins values, the source holds several entries; their conditions need not be identical. Equal entries are not always repeated. Where two headings read alike, the source gives them in different places. Marks after values point to notes of the source that are not given here.

Experiments:
[1] = system: P. falciparum Dd2 (PfDd2); assay: microbe, parasite or virus in culture; format: cell-based; conditions: Plasmodium falciparum, DD2, read-out: IC50 PfDd2
Procedure: The resistance index (RI), which represents a ratio between IC50 obtained against PfDd2 and Pf3D7, was also calculated (Table 3).
(§1) Briefly, 96-well plates were pre-coated with the tested compounds in a three-fold dilution before ring-stage parasites were added to the complete culture medium at a haematocrit of 1.5% and a parasitaemia of 0.05%. After three days of incubation at 37 °C, 5% CO2, and 5% oxygen, plates were frozen until analysed by HRP2-ELISA. All compounds were evaluated in duplicate in at least two independent experiments. The IC50 was determined by non-linear regression analysis of log concentration-response curves using the drc-package v0.9.0 of R v2.6.1 [42].

HepG2 cells = assay: In vitro cytotoxicity, neutral red assay; format: cell-based; conditions: Homo sapiens, HepG2, 24 h, one day of incubation, mean ± SD (n ≥ 2)
Procedure: The cytotoxicity of the second-generation harmiquins 33–45 was assessed against HepG2 cells to determine the selectivity of the tested compounds towards P. falciparum in comparison to mammalian cells (Table 4).
Cytotoxicity against a human cell line (HepG2) was evaluated using the neutral red assay with minor modifications. In brief, human cells were seeded to a 96-well plate in a complete culture medium; on the following day, a serial dilution of the respective compound was added. After one day of incubation, cytotoxicity was evaluated by the addition of neutral red, subsequent lysis of cells, and measurement of absorbance (540 nm) in a plate reader (CLARIOstar, BMG Labtech). The IC50 was determined similarly to the in vitro drug assay against P. falciparum. To assess the safety of a compound, SI was calculated as the fractional ratio between the IC50s for HepG2 and P. falciparum 3D7 strain.

[2] = system: P. falciparum 3D7 (Pf3D7); assay: In vitro drug sensitivity assay (HRP2-ELISA) against erythrocytic stage, CQ-sensitive strain; format: cell-based; conditions: Plasmodium falciparum, mean ± SD (n ≥ 2)
Procedure: as §1, with “After three days of incubation at 37 °C, 5% CO2, and 5% oxygen, plates were frozen until analysed by HRP2-ELISA.” left out

[3] = system: P. falciparum Dd2 (PfDd2); conditions: multi-drug resistant strain; cited from earlier work
[4] = system: P. falciparum 3D7 (Pf3D7); conditions: CQ-sensitive strain; cited from earlier work
calf thymus (ct)-DNA = format: binding; conditions: for log Ks ctDNA: pH 7; for ΔInt ctDNA: ΔInt = Int(100% complex)/Int0
From the text: (§2) The titration data are processed by a non-linear fitting procedure to the Scatchard equation [44, 45, 46], yielding binding constants (Supplemental Information, Figures S5–S12, Table 6).
(§3) Polynucleotides were purchased as noted: calf thymus (ct) DNA, poly dAdT–poly dAdT, poly dGdC–poly dGdC, and poly A–poly U (Sigma Aldrich, St. Louis, MO, USA), and dissolved in sodium cacodylate buffer (I = 0.05 M, pH = 7.0).

poly(dAdT)2 = format: binding
From the text: as §2, §3

[5] = biological target: T1, human serum albumin (HSA) (Homo sapiens, UniProt P02768); assay: Fluorimetric titration with HSA
T1 sequence (P02768 25-609): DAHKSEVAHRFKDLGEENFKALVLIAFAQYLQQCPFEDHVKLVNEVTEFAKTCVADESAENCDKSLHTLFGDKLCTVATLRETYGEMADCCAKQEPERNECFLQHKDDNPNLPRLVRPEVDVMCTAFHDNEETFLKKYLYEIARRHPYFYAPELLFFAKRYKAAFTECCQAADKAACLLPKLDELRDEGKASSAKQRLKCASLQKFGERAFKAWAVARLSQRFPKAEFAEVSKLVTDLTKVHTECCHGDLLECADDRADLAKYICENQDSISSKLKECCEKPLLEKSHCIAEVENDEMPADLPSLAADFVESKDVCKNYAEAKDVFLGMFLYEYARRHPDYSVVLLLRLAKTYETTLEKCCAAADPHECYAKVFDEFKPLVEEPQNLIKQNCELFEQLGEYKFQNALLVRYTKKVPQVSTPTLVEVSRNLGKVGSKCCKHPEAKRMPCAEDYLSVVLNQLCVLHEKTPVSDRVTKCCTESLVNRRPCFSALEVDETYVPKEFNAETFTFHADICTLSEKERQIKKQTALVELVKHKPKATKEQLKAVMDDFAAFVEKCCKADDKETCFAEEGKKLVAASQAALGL
Procedure: (§4) The electronic absorption (UV/vis) spectra were recorded on a Varian Cary 100 Bio spectrophotometer (Varian, Inc., Palo Alto, CA, USA). Fluorescence measurements were performed on a Varian Cary Eclipse fluorimeter (Varian, Inc., CA, USA), taking care that the absorbance of a sample at the excitation wavelength was > 0.05 to avoid any impact of the inner filter effect.
(§5) Human serum albumin was purchased from Sigma-Aldrich (Sigma-Aldrich, St. Louis, MO, USA) supplier, and dissolved in milli Q (MQ) water.
(§6) Fluorimetric titration experiments were performed by adding aliquots of the polynucleotide stock solution into the solution of the studied dye. […] In both sets of experiments (fluorimetric and CD titrations), a buffer background was subtracted from each spectrum. Every reported spectrophotometric titration was the average of at least two measurements.

[6] = biological target: T1, human serum albumin (HSA); assay: biochemical
Procedure: as §4, §5, §6

[7] = biological target: poly A–poly U (pApU, ds-RNA); assay: Fluorimetric titration with poly A–poly U; format: binding
Procedure: The strong emission and favourable Stokes shift of emission maxima allowed the performance of fluorimetric titrations with ds-DNA/RNA at very low (5 µM) concentrations of investigated compounds.
as §2, §3

Compound | IC50 [1] | IC50 (HepG2 cells) | IC50 [2] | also measured
CCOc1ccc2c3ccnc(C)c3n(Cc3cn(CCNc4ccnc5cc(Cl)ccc45)nn3)c2c1 [Compound 38, 7-Chloro-N-(2-(4-((7-ethoxy-1-methyl-9H-pyrido[3,4-b]indol-9-yl)methyl)-1H-1,2,3-triazol-1-yl)ethyl)quinolin-4-amine] | 82.2 ± 2.2 nM | 29600 ± 6000 nM | 18.7 ± 4.7 nM | –
CCCOc1ccc2c(c1)c1ccnc(C)c1n2CCNC(=O)CNc1ccnc2cc(Cl)ccc12 [Compound 37, 2-((7-Chloroquinolin-4-yl)amino)-N-(2-(1-methyl-6-propoxy-9H-pyrido[3,4-b]indol-9-yl)ethyl)acetamide] | 10.5 ± 0.4 nM | 35800 ± 4300 nM | 4.6 ± 0.6 nM | –
CCOc1ccc2c3ccnc(C)c3n(CCNC(=O)CNc3ccnc4cc(Cl)ccc34)c2c1 [Compound 33, 2-((7-Chloroquinolin-4-yl)amino)-N-(2-(7-ethoxy-1-methyl-9H-pyrido[3,4-b]indol-9-yl)ethyl)acetamide] | 6.5 ± 2.5 nM | – | 4.7 ± 1.3 nM | –
CC(C)c1nccc2c3ccccc3n(Cc3cn(CCNc4ccnc5cc(Cl)ccc45)nn3)c12 [Compound 45, 7-Chloro-N-(2-(4-((1-isopropyl-9H-pyrido[3,4-b]indol-9-yl)methyl)-1H-1,2,3-triazol-1-yl)ethyl)quinolin-4-amine] | 18.8 ± 9.1 nM | 128000 ± 2700 nM | 15.9 ± 11.5 nM | –
COc1ccc2c3ccnc(C)c3n(CCNC(=O)CNc3ccnc4cc(Cl)ccc34)c2c1 [A] | – | – | – | IC50 [3]: 16.2 ± 2.83 nM; IC50 [4]: 2 ± 0.3 nM
Cc1nccc2c3ccc(OC(C)C)cc3n(CCNC(=O)CNc3ccnc4cc(Cl)ccc34)c12 [Compound 35, 2-((7-Chloroquinolin-4-yl)amino)-N-(2-(7-isopropoxy-1-methyl-9H-pyrido[3,4-b]indol-9-yl)ethyl)acetamide] | 26.5 ± 4.5 nM | 127000 ± 31500 nM | 28.1 ± 0.5 nM | –
COc1ccc2c(c1)c1ccnc(C)c1n2CCNC(=O)CNc1ccnc2cc(Cl)ccc12 [Compound 36, 2-((7-Chloroquinolin-4-yl)amino)-N-(2-(6-methoxy-1-methyl-9H-pyrido[3,4-b]indol-9-yl)ethyl)acetamide] | 36.7 ± 4 nM | 24300 ± 3400 nM | 16.6 ± 2.1 nM | –
CCCOc1ccc2c3ccnc(C)c3n(CCNC(=O)CNc3ccnc4cc(Cl)ccc34)c2c1 [Compound 34, 2-((7-Chloroquinolin-4-yl)amino)-N-(2-(1-methyl-7-propoxy-9H-pyrido[3,4-b]indol-9-yl)ethyl)acetamide] | 17.7 ± 8.7 nM | 18200 ± 1800 nM | 11 ± 1.5 nM | log Ks toward GC-containing DNAs (calf thymus (ct)-DNA): 6–7; log Ks ctDNA (calf thymus (ct)-DNA): 7.3; ΔInt ctDNA (calf thymus (ct)-DNA): (0.57); log Ks toward AT-DNA and AU-RNA (poly(dAdT)2): 4–5; log Ks p(dA-dT)2 (poly(dAdT)2; pH 7): 5.2; ΔInt p(dA-dT)2 (poly(dAdT)2; ΔInt = Int(100% complex)/Int0): (2.28); ΔInt HSA [5]: (62.8); Kd [6]: 794 nM; log Ks pApU ([7]; estimation only, almost linear emission change, pH 7.0, sodium cacodylate buffer, I = 0.05 M): >4 ^c
Cc1nccc2c3ccc(OC(C)C)cc3n(Cc3cn(CCNc4ccnc5cc(Cl)ccc45)nn3)c12 [Compound 40, 7-Chloro-N-(2-(4-((7-isopropoxy-1-methyl-9H-pyrido[3,4-b]indol-9-yl)methyl)-1H-1,2,3-triazol-1-yl)ethyl)quinolin-4-amine] | 33.3 ± 1.6 nM | 26900 ± 900 nM | 25 ± 3.3 nM | –
CCc1nccc2c3ccccc3n(Cc3cn(CCNc4ccnc5cc(Cl)ccc45)nn3)c12 [Compound 43, 7-Chloro-N-(2-(4-((1-ethyl-9H-pyrido[3,4-b]indol-9-yl)methyl)-1H-1,2,3-triazol-1-yl)ethyl)quinolin-4-amine] | 204 ± 73.2 nM | 68200 ± 6100 nM | 88.4 ± 0.5 nM | –
CCCc1nccc2c3ccccc3n(Cc3cn(CCNc4ccnc5cc(Cl)ccc45)nn3)c12 [Compound 44, 7-Chloro-N-(2-(4-((1-propyl-9H-pyrido[3,4-b]indol-9-yl)methyl)-1H-1,2,3-triazol-1-yl)ethyl)quinolin-4-amine] | 214 ± 71.8 nM | 68900 ± 4300 nM | 96.9 ± 1.5 nM | –
CCCOc1ccc2c(c1)c1ccnc(C)c1n2Cc1cn(CCNc2ccnc3cc(Cl)ccc23)nn1 [Compound 42, 7-Chloro-N-(2-(4-((1-methyl-6-propoxy-9H-pyrido[3,4-b]indol-9-yl)methyl)-1H-1,2,3-triazol-1-yl)ethyl)quinolin-4-amine] | 15.5 ± 1.7 nM | 20300 ± 1600 nM | 7.6 ± 0.2 nM | –
COc1ccc2c(c1)c1ccnc(C)c1n2Cc1cn(CCNc2ccnc3cc(Cl)ccc23)nn1 [Compound 41, 7-Chloro-N-(2-(4-((6-methoxy-1-methyl-9H-pyrido[3,4-b]indol-9-yl)methyl)-1H-1,2,3-triazol-1-yl)ethyl)quinolin-4-amine] | 98.7 ± 36.3 nM | 32100 ± 1100 nM | 18.5 ± 6.1 nM | –
COc1ccc2c3ccnc(C)c3n(Cc3cn(CCNc4ccnc5cc(Cl)ccc45)nn3)c2c1 [B] | – | – | – | IC50 [3]: 204 ± 9.89 nM; IC50 [4]: 11.6 ± 3.8 nM
CCCOc1ccc2c3ccnc(C)c3n(Cc3cn(CCNc4ccnc5cc(Cl)ccc45)nn3)c2c1 [Compound 39, 7-Chloro-N-(2-(4-((1-methyl-7-propoxy-9H-pyrido[3,4-b]indol-9-yl)methyl)-1H-1,2,3-triazol-1-yl)ethyl)quinolin-4-amine] | 20.1 ± 2.2 nM | 14400 ± 1700 nM | 6.8 ± 4 nM | log Ks toward GC-containing DNAs (calf thymus (ct)-DNA): 4–5; log Ks ctDNA (calf thymus (ct)-DNA): 5.5; ΔInt ctDNA (calf thymus (ct)-DNA): (0.59); emission response to AT-DNA (poly(dAdT)2): completely insensitive; Kd [6]: 6310 nM and 7940 nM; emission response to AU-RNA ([7]; compound 5 µM, fluorimetric titration): completely insensitive
